Data on two molecules can be found in patent US6815183B1, “Plasmodium sp. chitinase” (The Board of Regents of the University of Texas System, priority 1999, dated 2004).

Read-outs that look alike come from different tables or passages of the source.

Experiment [1] relates to Endo Lys-C-treated rPgCHT1. Description: Kinetics of Endo Lys-C-treated rPgCHT1-NT1 on 4-MU substrates (Lineweaver-Burk plot). The settings on record: pH 6.0.
Method: Analysis of Chitinase Activity. Chitinase activity of both native and recombinant chitinases was assessed in three ways. […] Second, microfluorimetry (HTS7000, Perkin-Elmer, excitation 360 nm and emission 465 nm) was used to measure the hydrolysis of 4-MU GlcNAc, 4-MU GlcNAc2, 4-MU GlcNAc3, and 4-MU GlcNAc4 (Sigma) as described previously. Initial enzyme reaction rates were measured. Enzymatic activity is reported as relative fluorescence units or fold change.
Experiment [2] addresses peak 1 of chitinase activity (native PgCHT1) (Plasmodium gallinaceum, UniProt Q9NJX9). Type of experiment: biochemical.
The next experiment addresses rPgCHT1 (Plasmodium gallinaceum, UniProt Q9NJX9). Description: biochemical.
The target of experiment [3] is peak 2 of chitinase activity (PgCHT2) (Plasmodium gallinaceum, UniProt A0A1J1H1G1). Format: biochemical.
peak 2 of chitinase activity (PgCHT2), sequence (A0A1J1H1G1 entry or part of it): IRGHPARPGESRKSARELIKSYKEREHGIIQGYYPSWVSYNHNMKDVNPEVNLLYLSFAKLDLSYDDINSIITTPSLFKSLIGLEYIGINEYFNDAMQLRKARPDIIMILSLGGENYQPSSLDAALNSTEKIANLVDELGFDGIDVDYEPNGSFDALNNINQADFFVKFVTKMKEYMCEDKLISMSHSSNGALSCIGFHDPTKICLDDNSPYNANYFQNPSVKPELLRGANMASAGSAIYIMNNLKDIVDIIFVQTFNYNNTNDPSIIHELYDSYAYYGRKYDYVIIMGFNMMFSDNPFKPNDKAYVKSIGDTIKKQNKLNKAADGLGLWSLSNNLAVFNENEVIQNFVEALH

peak 1 of chitinase activity (native PgCHT1), sequence (Q9NJX9 entry or part of it): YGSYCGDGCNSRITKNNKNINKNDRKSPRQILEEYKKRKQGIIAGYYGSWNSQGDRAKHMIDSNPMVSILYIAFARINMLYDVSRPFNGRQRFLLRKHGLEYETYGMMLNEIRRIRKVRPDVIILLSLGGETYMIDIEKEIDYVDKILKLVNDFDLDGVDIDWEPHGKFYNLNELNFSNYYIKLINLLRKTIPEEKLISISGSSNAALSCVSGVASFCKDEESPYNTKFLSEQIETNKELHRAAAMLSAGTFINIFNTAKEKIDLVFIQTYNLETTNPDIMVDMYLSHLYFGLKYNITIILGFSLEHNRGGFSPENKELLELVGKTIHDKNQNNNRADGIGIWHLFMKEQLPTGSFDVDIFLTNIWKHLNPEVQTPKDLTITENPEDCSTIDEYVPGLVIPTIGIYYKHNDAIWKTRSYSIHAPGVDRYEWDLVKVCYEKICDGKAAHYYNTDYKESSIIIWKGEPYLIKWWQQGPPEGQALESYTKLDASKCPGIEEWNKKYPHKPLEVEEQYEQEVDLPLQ
rPgCHT1, sequence (Q9NJX9 entry or part of it): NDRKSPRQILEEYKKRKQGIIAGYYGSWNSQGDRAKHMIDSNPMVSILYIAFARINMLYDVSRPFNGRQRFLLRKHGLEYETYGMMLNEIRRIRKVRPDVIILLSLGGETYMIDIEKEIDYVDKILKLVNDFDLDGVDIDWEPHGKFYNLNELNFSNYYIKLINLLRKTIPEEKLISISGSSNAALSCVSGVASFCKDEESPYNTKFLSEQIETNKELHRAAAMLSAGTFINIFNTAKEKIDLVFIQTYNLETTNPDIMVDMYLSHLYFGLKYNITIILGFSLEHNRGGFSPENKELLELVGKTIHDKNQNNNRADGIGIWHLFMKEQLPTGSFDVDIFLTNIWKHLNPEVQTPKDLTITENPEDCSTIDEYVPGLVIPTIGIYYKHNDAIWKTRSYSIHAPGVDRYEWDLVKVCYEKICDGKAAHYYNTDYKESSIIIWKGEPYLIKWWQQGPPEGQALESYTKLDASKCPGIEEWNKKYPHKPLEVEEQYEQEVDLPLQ

As to `CC(=O)N[C@H]1[C@H](Oc2ccc3c(C)cc(=O)oc3c2)O[C@H](CO)[C@@H](O[C@@H]2O[C@H](CO)[C@@H](O[C@@H]3O[C@H](CO)[C@@H](O)[C@H](O)[C@H]3NC(C)=O)[C@H](O)[C@H]2NC(C)=O)[C@@H]1O` [4-MU GlcNAc3, 4-methylumbelliferyl-N,N′,N″-β-D-triacetylchitotrioside], in experiment [1], the Km came out at 140 µM.

For the molecule `CC(=O)N[C@H]1[C@H](O[C@H]2[C@@H](O)[C@@H](NC(C)=O)[C@H](O[C@H]3[C@H](O)[C@H]4N=C(N(C)C)O[C@H]4[C@@H]3CO)O[C@@H]2CO)O[C@H](CO)[C@@H](O)[C@H]1O` [allosamidin], the IC50 in experiment [2] came to 7 µM; against rPgCHT1, 12 µM; in experiment [3] (read-out: IC50 of PgCHT2), 300 nM; in experiment [3] (read-out: IC50 value for peak 2), 300 nM.
